Data set [1] relates to hepatocyte cell line HepG2. Put plainly: Toxicity on hepatocyte cell line HepG2 (MTT test). To be noted: for CD50 (cytotoxic concentration leading to reduction of 50% of the cell number compared to untreated cells): HepG2, 72 h, MTT test. It counts as cell-based. Here is the method:
PACLP and paclitaxel were evaluated in vitro using hepatocyte cell line HepG2. Cells were cultured in 96 well plates at a cell density of 20000 cell/well and treated with increasing concentrations of both PACLP and paclitaxel (0-1000 μM) for 72 h. Control cells were treated with an absolute ethanol, diluted in the same way as the tested substances. Cytotoxicity was measured using the MTT test. All experiments were carried out in triplicates and each test was repeated three times.
CD50 (the cytotoxic concentration leading to reduction of 50% of the cell number compared to untreated cells) was at concentration of 5 μM and 100 μM, and 500 μM for paclitaxel, PACLP, and the solvent, respectively.
On the technique in general: Tetrazolium dyes change colour on reduction, which living cells bring about.

Data set [2] relates to CAPAN. Put plainly: MTT proliferation assay, in vitro cytotoxicity. It counts as cell-based. To be noted: 72 h, FIG. 3d, read-out: calculated EC50. Here is the method: (§1) Cancer cells, HeLa, Caco-2, PC3 prostate, CAPAN, A549, SKBR3 were maintained in a humidified atmosphere at 37° C. and gassed with 5% CO2 in air in air. The cells were incubated with various concentrations of paclitaxel and PACLP. The in vitro cytotoxicity of the drugs was measured by a proliferation assay utilizing tetrazolium dye, MTT ([3-(4,5-[…])-2,5 diphenyl tetrazolium bromid). The experiments were carried out with cells in the exponential growth phase.
(§2) Results of these experiments are presented in graphs 3a-3f, indicating the IC50, (the concentration found to inhibit about fifty percent of the growth of the cancer cell lines).

Data set [3] relates to Caco-2 carcinoma of the colon. Put plainly: MTT proliferation assay, in vitro cytotoxicity. The class given is cell-based. The note with it: Homo sapiens, FIG. 3b, read-out: calculated EC50. As for the experimental part: as §1, §2
The test system of data set [4] is PC3 prostate carcinoma. Put plainly: MTT proliferation assay, in vitro cytotoxicity. It counts as cell-based. To be noted: FIG. 3c, read-out: calculated EC50. Here is the method:
as §1, §2

For data set [5], the system named is A549 lung cancer. Put plainly: MTT proliferation assay, in vitro cytotoxicity. The class given is cell-based. To be noted: Homo sapiens, FIG. 3e, read-out: Calculated EC50. As for the experimental part:
as §1, §2

Data set [6] concerns SKBR3 breast carcinoma. Put plainly: MTT proliferation assay, in vitro cytotoxicity. The class given is cell-based. The note with it: Homo sapiens, SK-BR-3, FIG. 3f, read-out: calculated EC50. Here is the method:
as §1, §2

Data set [7] relates to HeLa cell line. The experiment in a line: MTT proliferation assay, in vitro cytotoxicity. It counts as cell-based. The note with it: Homo sapiens, FIG. 3a, read-out: calculated EC50. Here is the method:
as §1, §2

Data set [8] concerns Balb/c mice. The experiment in a line: LD50 test using Balb/c mice. It counts as in vivo. The note with it: 80-140 mg/kg, observed 4 weeks after injection. Here is the method:
Balb/c mice were divided into 9 groups, 8 mice in each group (4 males and 4 females). Group one, the control group, were given 50 μl solvent with 150 μL normal saline. Groups 2, 3, 4 and 5 were given 125, 150, 175, 200 mg/kg of PACLP respectively. Groups 6, 7, 8 and 9 were given 80, 100, 120, 140 mg/kg of paclitaxel respectively. Mice were observed 4 weeks after injection. The results are set in FIG. 6. Most of the animals died within the first week after treatment.

Data set [9] relates to endothelial cells of human (H-1044 EC p7 naïve). The experiment in a line: Effect on endothelial cell proliferation (cell count). It counts as cell-based. The note with it: 48 hours, in words. As for the experimental part:
The test was conducted using endothelial cells of human (H-1044 EC p7 naïve). 70,000 cells were grown in each well. After the cells have adhered for 3 hours, the material (paclitaxel or PACLP) was added to the cells. After 48 hours of cell growth the cells were detached by trypsin and counted. The results are set in.

For data set [10], the system named is 6 cancer cell lines. The experiment in a line: In vitro anti-tumor activity on 6 cancer cell lines (overall comparison). It counts as cell-based. To be noted: in words. Here is the method:
as §1, §2

In general, EC50 refers to the concentration giving half of the maximal effect.

In brackets after ≈: the same amount, converted by molar mass. Entries after “also recorded” stand apart in the source; their conditions may differ.

Turning to `CC(=O)O[C@H]1C(=O)[C@@]2(C)[C@H]([C@H](OC(=O)c3ccccc3)[C@]3(O)C[C@H](OC(=O)[C@H](O)[C@@H](NC(=O)c4ccccc4)c4ccccc4)C(C)=C1C3(C)C)[C@]1(OC(C)=O)CO[C@@H]1C[C@@H]2O` [paclitaxel, reference compound], the “CD50 (cytotoxic concentration leading to reduction of 50% of the cell number compared to untreated cells)” value in data set [1] turned out to be 5 µM. Besides, the EC50 in data set [2] was 11 µg/mL (≈ 12.9 µM); in data set [3], 9 µg/mL (≈ 10.5 µM); in data set [4], 12 µg/mL (≈ 14.1 µM); in data set [5] it was 5.5 µg/mL (≈ 6.44 µM); in [6] it was 19 µg/mL (≈ 22.3 µM); in [7], 9 µg/mL (≈ 10.5 µM). In addition, the observation before death entry in data set [8] was “swelling and redness before death”.
Consider `CC(=O)O[C@H]1C(=O)[C@@]2(C)[C@H]([C@H](OC(=O)c3ccccc3)[C@]3(O)C[C@H](OC(=O)[C@H](OC(=O)CCCCC4CCSS4)[C@@H](NC(=O)c4ccccc4)c4ccccc4)C(C)=C1C3(C)C)[C@]1(OC(C)=O)CO[C@@H]1C[C@@H]2O` (stereo partly drawn) [PACLP, Paclitaxel-lipoate], for which the “cytotoxicity compared to paclitaxel” value in data set [9] is “less cytotoxic”; in data set [1] (hepatocyte cell line HepG2, in words) it was “less cytotoxic”. For the same molecule, in data set [1], the “CD50 (cytotoxic concentration leading to reduction of 50% of the cell number compared to untreated cells)” value stood at 100 µM. Moreover, the EC50 in [2] is 5 µg/mL (≈ 4.8 µM); in data set [3], 1.5 µg/mL (≈ 1.44 µM); in [4], 3.5 µg/mL (≈ 3.36 µM); in data set [5], 2.5 µg/mL (≈ 2.4 µM); in [6] it was 2 µg/mL (≈ 1.92 µM); in data set [7] it was 1.5 µg/mL (≈ 1.44 µM). The “anti-tumor activity compared to free paclitaxel” value in data set [10] is reported as “greater anti-tumor activity; also recorded: somewhat more effective than paclitaxel”.

(Values after US8586625B2, “Derivatives of taxol and closely related compounds” (priority 2008, dated 2013).)
